Measured values reported in ChEMBL document CHEMBL5212743, “Selectivity Literature for EUbOPEN Chemogenomics Library wave 3” (2023).

Tests used:
[1] = target: Serine/threonine-protein kinase 16 (Homo sapiens, UniProt O75716); test: Selectivity interaction (KinomeScan (DiscoverX)) EUB0000691a STK16; conditions: at 10 µM
[2] = target: Phosphatidylinositol 3-kinase C2 domain-containing subunit gamma (Homo sapiens) (UniProt O75747); test: Selectivity interaction (KinomeScan (DiscoverX)) EUB0000691a PIK3C2G; conditions: at 10 µM
[3] = target: Dual specificity protein kinase TTK (Homo sapiens) (UniProt P33981); test: Selectivity interaction (KinomeScan (DiscoverX)) EUB0000691a TTK; conditions: at 10 µM
[4] = target: Dual specificity mitogen-activated protein kinase kinase 4 (Homo sapiens) (UniProt P45985); test: Selectivity interaction (KinomeScan (DiscoverX)) EUB0000691a MAP2K4; conditions: at 10 µM
[5] = target: Tyrosine-protein kinase JAK1 (Homo sapiens, UniProt P23458); test: Selectivity interaction (KinomeScan (DiscoverX)) EUB0000691a JAK1@kinase 1; conditions: at 10 µM
Tyrosine-protein kinase JAK1, sequence (P23458 whole entry): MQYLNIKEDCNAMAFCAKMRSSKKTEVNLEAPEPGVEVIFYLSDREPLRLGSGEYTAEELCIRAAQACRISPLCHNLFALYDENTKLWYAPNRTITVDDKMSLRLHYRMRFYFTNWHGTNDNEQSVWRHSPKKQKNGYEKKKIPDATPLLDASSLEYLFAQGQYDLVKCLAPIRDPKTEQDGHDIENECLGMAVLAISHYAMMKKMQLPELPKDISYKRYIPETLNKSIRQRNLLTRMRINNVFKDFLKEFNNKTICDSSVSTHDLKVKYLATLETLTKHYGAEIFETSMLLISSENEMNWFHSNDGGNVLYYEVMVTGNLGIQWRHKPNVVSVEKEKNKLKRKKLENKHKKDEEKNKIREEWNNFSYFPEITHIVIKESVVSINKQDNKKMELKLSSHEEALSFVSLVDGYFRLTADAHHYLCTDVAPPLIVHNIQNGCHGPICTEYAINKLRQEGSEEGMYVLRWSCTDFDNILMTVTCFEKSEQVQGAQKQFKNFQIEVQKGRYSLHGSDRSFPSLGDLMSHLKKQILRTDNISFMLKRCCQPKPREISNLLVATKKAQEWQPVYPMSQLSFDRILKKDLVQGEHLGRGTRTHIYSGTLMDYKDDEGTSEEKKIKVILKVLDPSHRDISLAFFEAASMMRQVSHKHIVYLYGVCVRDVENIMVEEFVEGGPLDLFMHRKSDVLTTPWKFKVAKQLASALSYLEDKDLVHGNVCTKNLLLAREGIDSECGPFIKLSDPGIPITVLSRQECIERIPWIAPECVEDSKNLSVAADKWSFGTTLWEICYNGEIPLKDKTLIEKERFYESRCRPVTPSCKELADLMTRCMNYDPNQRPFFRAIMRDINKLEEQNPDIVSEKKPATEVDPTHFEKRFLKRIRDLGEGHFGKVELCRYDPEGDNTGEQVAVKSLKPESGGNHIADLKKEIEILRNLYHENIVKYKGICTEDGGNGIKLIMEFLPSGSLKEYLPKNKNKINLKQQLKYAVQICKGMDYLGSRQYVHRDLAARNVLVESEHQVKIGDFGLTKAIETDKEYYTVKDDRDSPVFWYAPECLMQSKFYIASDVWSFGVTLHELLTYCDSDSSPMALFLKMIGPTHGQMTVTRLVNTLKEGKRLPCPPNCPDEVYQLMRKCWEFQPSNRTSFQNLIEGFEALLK

[6] = target: T1, Cyclin-G-associated kinase (Homo sapiens) (UniProt O14976); test: Selectivity interaction (KinomeScan (DiscoverX)) EUB0000691a GAK; conditions: at 10 µM
T1 sequence (whole entry): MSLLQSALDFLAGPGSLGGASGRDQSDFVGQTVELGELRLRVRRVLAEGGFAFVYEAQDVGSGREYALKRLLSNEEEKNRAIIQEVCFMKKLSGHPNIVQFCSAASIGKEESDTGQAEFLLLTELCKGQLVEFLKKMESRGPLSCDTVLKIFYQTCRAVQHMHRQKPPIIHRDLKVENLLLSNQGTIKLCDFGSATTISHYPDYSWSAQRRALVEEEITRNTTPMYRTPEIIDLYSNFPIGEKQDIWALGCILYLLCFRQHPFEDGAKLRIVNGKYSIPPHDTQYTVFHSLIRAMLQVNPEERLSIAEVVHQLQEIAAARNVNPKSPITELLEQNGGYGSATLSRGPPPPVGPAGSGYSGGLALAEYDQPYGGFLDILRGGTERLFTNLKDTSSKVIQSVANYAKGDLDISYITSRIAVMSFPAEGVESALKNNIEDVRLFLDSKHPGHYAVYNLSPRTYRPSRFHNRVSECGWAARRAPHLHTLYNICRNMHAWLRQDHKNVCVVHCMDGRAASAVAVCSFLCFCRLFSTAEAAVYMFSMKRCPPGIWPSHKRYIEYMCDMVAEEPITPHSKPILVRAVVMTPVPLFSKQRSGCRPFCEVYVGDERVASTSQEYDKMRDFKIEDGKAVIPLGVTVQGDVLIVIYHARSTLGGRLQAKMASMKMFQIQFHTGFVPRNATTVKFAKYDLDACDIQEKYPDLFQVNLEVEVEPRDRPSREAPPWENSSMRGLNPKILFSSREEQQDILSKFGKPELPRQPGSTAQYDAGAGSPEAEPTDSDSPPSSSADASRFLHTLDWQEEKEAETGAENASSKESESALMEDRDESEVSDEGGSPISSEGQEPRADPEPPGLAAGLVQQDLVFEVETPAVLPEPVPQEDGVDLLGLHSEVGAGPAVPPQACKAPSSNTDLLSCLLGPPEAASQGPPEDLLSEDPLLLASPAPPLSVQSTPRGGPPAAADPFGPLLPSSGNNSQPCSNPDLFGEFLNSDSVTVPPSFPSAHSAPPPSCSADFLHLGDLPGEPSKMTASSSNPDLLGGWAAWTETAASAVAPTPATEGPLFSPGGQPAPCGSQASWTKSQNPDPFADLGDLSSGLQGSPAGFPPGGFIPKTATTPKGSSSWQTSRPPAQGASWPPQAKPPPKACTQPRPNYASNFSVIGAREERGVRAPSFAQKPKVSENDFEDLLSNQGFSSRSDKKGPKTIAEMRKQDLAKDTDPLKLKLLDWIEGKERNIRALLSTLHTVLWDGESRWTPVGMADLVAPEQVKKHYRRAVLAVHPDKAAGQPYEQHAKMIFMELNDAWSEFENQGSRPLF

[7] = target: Tyrosine-protein kinase ABL2 (Homo sapiens) (UniProt P42684); test: Selectivity interaction (KinomeScan (DiscoverX)) EUB0000686a ABL2; conditions: at 1 µM
[8] = target: Histone-lysine N-methyltransferase KMT5B (Homo sapiens, UniProt Q4FZB7); test: Selectivity interaction (Protein methyltransferase panel (activity assay)) EUB0000211b SUV420H1
[9] = target: Protein arginine N-methyltransferase 5 (Homo sapiens, UniProt O14744); test: Selectivity interaction (Protein methyltransferase panel (activity assay)) EUB0000211b PRMT5
Protein arginine N-methyltransferase 5, sequence (O14744 whole entry): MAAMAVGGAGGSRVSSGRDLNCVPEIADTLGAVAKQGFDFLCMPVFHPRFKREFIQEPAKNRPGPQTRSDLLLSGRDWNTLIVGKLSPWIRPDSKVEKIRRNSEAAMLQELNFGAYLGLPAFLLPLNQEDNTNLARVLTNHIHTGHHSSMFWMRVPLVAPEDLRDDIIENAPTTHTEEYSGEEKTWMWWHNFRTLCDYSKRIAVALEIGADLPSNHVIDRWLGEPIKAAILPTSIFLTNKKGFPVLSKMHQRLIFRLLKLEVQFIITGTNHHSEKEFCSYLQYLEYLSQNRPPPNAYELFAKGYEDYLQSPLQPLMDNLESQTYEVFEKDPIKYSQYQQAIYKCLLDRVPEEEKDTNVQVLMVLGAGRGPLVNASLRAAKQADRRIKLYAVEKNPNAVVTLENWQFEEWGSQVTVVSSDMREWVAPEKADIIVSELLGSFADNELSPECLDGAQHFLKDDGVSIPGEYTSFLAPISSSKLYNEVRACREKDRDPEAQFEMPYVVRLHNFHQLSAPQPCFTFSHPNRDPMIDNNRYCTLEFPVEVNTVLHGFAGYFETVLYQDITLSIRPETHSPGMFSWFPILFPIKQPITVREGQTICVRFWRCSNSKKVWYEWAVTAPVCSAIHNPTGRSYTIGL

[10] = target: Protein arginine N-methyltransferase 1 (Homo sapiens, UniProt Q99873); test: Selectivity interaction (Protein methyltransferase panel (activity assay)) EUB0000211b PRMT1
[11] = target: Histone-lysine N-methyltransferase SETDB1 (Homo sapiens, UniProt Q15047); test: Selectivity interaction (Protein methyltransferase panel (activity assay)) EUB0000211b SETDB1
[12] = target: Histone-lysine N-methyltransferase KMT5C (Homo sapiens, UniProt Q86Y97); test: Selectivity interaction (Protein methyltransferase panel (activity assay)) EUB0000211b SUV420H2
[13] = target: N-lysine methyltransferase SMYD2 (Homo sapiens, UniProt Q9NRG4); test: Selectivity interaction (Protein methyltransferase panel (activity assay)) EUB0000211b SMYD2
[14] = target: Histone-lysine N-methyltransferase EZH2 (Homo sapiens, UniProt Q15910); test: Selectivity interaction (Protein methyltransferase panel (activity assay)) EUB0000211b EZH2
[15] = target: Protein arginine N-methyltransferase 3 (Homo sapiens, UniProt O60678); test: Selectivity interaction (Protein methyltransferase panel (activity assay)) EUB0000211b PRMT3
Protein arginine N-methyltransferase 3, sequence (O60678 2-531 limits assumed): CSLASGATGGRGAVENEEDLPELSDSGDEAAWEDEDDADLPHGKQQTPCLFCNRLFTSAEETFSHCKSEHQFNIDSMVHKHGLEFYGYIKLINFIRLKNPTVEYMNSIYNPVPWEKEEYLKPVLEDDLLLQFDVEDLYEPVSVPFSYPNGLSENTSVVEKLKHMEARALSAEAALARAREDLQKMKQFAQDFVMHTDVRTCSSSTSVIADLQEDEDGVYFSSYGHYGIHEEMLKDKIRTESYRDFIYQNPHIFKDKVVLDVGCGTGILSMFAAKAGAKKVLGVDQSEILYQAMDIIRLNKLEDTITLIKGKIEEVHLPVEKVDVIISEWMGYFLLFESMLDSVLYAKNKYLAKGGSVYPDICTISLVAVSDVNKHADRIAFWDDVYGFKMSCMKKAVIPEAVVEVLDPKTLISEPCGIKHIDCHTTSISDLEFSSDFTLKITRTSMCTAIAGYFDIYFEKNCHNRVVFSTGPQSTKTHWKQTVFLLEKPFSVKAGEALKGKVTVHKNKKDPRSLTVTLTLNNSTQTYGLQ

[16] = target: Histone-lysine N-methyltransferase SETD7 (Homo sapiens) (UniProt Q8WTS6); test: Selectivity interaction (Protein methyltransferase panel (activity assay)) EUB0000211b SETD7
[17] = target: Histone-lysine N-methyltransferase EHMT1 (Homo sapiens) (UniProt Q9H9B1); test: Selectivity interaction (Protein methyltransferase panel (activity assay)) EUB0000211b EHMT1
[18] = target: Histone-lysine N-methyltransferase SUV39H2 (Homo sapiens, UniProt Q9H5I1); test: Selectivity interaction (Protein methyltransferase panel (activity assay)) EUB0000211b SUV39H2
[19] = target: Histone-lysine N-methyltransferase, H3 lysine-36 specific (Homo sapiens) (UniProt Q96L73); test: Selectivity interaction (Protein methyltransferase panel (activity assay)) EUB0000211b NSD1
[20] = target: N-lysine methyltransferase KMT5A (Homo sapiens) (UniProt Q9NQR1); test: Selectivity interaction (Protein methyltransferase panel (activity assay)) EUB0000211b SETD8
N-lysine methyltransferase KMT5A (Homo sapiens), sequence (Q9NQR1 whole entry): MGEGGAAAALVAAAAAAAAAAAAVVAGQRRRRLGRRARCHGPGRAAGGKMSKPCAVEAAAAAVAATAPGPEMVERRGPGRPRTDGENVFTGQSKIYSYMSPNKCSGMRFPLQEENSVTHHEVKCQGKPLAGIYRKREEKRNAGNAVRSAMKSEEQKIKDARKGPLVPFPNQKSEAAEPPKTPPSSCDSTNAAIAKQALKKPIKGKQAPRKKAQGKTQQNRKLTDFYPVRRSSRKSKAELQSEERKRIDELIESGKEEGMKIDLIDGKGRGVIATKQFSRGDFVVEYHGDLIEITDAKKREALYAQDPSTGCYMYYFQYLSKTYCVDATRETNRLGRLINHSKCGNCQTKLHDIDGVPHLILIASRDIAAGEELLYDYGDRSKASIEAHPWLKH

[21] = target: Protein arginine N-methyltransferase 6 (Homo sapiens, UniProt Q96LA8); test: Selectivity interaction (Protein methyltransferase panel (activity assay)) EUB0000211b PRMT6
[22] = target: Histone-lysine N-methyltransferase NSD2 (Homo sapiens) (UniProt O96028); test: Selectivity interaction (Protein methyltransferase panel (activity assay)) EUB0000211b NSD2
[23] = target: Tudor domain-containing protein 3 (Homo sapiens) (UniProt Q9H7E2); test: Selectivity interaction (Methyl-Lysine/Arginine panel (DSF assay)) EUB0000211b TDRD3; conditions: OICR-# does not inhibit the C/EBPa p30-Wdr5 interaction (Western Blot), PMID: #;, Selectivity Remarks In vitro, Selectivity Source Knowledge https://www.thesgc.org/chemical-probes/OICR-9429, S
[24] = target: DNA (cytosine-5)-methyltransferase 1 (Homo sapiens, UniProt P26358); test: Selectivity interaction (Protein methyltransferase panel (activity assay)) EUB0000211b DNMT1
[25] = target: Histone-lysine N-methyltransferase, H3 lysine-79 specific (Homo sapiens, UniProt Q8TEK3); test: Selectivity interaction (Protein methyltransferase panel (activity assay)) EUB0000211b DOT1L
Histone-lysine N-methyltransferase, H3 lysine-79 specific, sequence (Q8TEK3 whole entry, looked up): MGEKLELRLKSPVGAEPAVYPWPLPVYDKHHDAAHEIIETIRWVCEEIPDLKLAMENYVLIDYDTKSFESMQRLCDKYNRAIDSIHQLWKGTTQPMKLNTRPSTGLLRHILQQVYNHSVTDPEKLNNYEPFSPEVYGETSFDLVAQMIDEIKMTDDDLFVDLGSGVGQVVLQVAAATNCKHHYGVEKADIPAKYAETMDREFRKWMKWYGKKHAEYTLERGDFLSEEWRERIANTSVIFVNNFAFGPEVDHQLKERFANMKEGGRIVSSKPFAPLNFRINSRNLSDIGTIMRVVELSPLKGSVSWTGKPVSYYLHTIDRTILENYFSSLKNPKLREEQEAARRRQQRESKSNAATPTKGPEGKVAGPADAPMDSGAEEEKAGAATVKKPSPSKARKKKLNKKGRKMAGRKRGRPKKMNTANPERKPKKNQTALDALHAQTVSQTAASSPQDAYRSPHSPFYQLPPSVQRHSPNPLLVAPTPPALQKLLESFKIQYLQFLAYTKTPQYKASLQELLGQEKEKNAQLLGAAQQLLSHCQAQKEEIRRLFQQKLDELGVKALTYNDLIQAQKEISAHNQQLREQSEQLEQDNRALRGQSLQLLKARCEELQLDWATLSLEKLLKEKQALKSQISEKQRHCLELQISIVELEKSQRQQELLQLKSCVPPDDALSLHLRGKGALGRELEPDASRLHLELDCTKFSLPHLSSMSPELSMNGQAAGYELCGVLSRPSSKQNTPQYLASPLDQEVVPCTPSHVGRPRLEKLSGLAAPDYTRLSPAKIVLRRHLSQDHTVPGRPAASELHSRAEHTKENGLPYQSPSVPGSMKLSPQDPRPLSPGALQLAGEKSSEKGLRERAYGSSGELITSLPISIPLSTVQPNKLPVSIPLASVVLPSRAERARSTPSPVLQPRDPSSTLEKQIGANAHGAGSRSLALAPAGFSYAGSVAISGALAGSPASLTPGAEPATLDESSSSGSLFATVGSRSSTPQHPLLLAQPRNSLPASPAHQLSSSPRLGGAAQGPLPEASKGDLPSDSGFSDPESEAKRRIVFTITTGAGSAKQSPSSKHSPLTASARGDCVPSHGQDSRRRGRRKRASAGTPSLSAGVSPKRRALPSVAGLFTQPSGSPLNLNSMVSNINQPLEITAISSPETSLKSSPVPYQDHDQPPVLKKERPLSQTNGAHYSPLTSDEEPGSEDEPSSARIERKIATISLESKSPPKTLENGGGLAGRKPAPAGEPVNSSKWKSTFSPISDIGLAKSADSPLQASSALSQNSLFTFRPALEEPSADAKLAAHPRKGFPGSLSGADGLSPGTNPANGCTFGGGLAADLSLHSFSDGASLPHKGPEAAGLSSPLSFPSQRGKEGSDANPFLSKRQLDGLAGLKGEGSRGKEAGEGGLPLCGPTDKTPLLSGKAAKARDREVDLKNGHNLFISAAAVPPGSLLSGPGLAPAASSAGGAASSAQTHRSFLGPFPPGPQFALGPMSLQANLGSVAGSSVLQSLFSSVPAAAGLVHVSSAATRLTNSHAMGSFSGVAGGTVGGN

[26] = target: Histone-lysine N-methyltransferase EZH1 (Homo sapiens) (UniProt Q92800); test: Selectivity interaction (Protein methyltransferase panel (activity assay)) EUB0000211b EZH1
Histone-lysine N-methyltransferase EZH1 (Homo sapiens), sequence (Q92800 whole entry): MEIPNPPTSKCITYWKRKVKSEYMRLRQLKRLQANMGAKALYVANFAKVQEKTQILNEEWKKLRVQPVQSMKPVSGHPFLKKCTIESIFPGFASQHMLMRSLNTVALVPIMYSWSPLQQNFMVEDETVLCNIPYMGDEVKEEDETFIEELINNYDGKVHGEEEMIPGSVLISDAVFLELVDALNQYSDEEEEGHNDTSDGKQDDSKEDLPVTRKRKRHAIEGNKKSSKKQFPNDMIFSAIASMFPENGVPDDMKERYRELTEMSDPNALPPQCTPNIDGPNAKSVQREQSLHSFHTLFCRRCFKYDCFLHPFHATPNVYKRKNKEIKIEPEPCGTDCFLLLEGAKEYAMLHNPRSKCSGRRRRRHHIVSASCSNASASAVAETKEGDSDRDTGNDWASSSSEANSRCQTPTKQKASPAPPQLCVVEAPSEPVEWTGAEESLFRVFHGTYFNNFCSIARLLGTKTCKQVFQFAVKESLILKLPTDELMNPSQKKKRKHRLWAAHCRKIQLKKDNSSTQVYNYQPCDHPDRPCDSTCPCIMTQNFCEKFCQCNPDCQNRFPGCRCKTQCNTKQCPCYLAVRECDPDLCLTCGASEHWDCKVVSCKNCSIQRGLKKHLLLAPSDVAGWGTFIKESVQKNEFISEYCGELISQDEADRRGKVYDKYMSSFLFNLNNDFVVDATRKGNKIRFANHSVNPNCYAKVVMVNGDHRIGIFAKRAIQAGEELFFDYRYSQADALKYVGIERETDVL

[27] = target: Protein arginine N-methyltransferase 9 (Homo sapiens) (UniProt Q6P2P2); test: Selectivity interaction (Protein methyltransferase panel (activity assay)) EUB0000211b PRMT9
[28] = target: Histone-lysine N-methyltransferase NSD3 (Homo sapiens) (UniProt Q9BZ95); test: Selectivity interaction (Protein methyltransferase panel (activity assay)) EUB0000211b NSD3
[29] = target: Protein arginine N-methyltransferase 8 (Homo sapiens, UniProt Q9NR22); test: Selectivity interaction (Protein methyltransferase panel (activity assay)) EUB0000211b PRMT8
[30] = target: Histone-lysine N-methyltransferase EHMT2 (Homo sapiens) (UniProt Q96KQ7); test: Selectivity interaction (Protein methyltransferase panel (activity assay)) EUB0000211b EHMT2

COc1ncc(-c2ccc3nccc(-c4ccnnc4)c3c2)cc1NS(=O)(=O)c1ccc(F)cc1F
% of control [1]: 3.4%
% of control [2]: 4.4%
% of control [3]: 4%
% of control [4]: 5.9%
% of control [5]: 2.2%
% of control [6]: 0.2%

CN(C)C(=O)c1cc2cnc(Nc3ccc(N4CCNCC4)cn3)nc2n1C1CCCC1
% of control [7]: 5.8%

CN1CCN(c2ccc(-c3cccc(CN4CCOCC4)c3)cc2NC(=O)c2c[nH]c(=O)cc2C(F)(F)F)CC1
% activity remaining [8]: > 90%
% activity remaining [9]: > 90%
% activity remaining [10]: > 90%
% activity remaining [11]: > 90%
% activity remaining [12]: > 90%
% activity remaining [13]: > 90%
% activity remaining [14]: > 90%
% activity remaining [15]: > 90%
% activity remaining [16]: > 90%
% activity remaining [17]: > 90%
% activity remaining [18]: > 90%
% activity remaining [19]: > 90%
% activity remaining [20]: > 90%
% activity remaining [21]: > 90%
% activity remaining [22]: > 80%
dTm [23]: 1.8 K
% activity remaining [24]: > 90%
% activity remaining [25]: > 90%
% activity remaining [26]: > 90%
% activity remaining [27]: > 90%
% activity remaining [28]: > 90%
% activity remaining [29]: > 90%
% activity remaining [30]: > 90%
